Data on six compounds can be found in US11779565B2, “Small organic molecules for use in the treatment of neuroinflammatory disorders” (THE MEDICAL RESEARCH, INFRASTRUCTURE AND HEALTH SERVICES …, priority 2017, dated 2023).

Usually IC50 stands for the concentration that gives 50% inhibition.

One test concerns P19 cells. Put plainly: In vitro differentiation assay of P19 cells (MAP-2 positive neurons). The test is classed as cell-based, murine. The conditions noted are these: RA stimulation alone (5×10^−7 M), day 8. How it is done:
P19 cells were grown in a-minimum essential medium (aMEM) (Gibco) containing 7.5% calf serum, 2.5% fetal calf serum, and 0.4 μl/ml penicillin—streptomycin (Gibco), at 37° C., 5% CO2. Cells were replenished with fresh medium every 48 h.
The medium, including RA, BMP supplements and SMs, was replenished after 48 h. After 4 days, aggregates which formed during RA treatment were dispersed enzymatically (0.05% v/v trypsin-0.02% v/v EDTA) and mechanically and plated in tissue culture grade dishes. At this stage, cells were cultured in RA-, BMP- and SM-free medium, which was refreshed every 48 h. MAP-2 positive neurons were examined at day 8 (i.e., day 4 post-RA treatment) by immunofluorescence. Briefly, at day 7, cells were re-cultured in 24 well-plates with cover slips at a final concentration of 5×10^4 cells/well. On day 8, cells were washed with PBS, fixed with PFA 4% for 15 min, permeabilized with 0.5% Triton Tx, blocked with 10% FCS, 0.1% BSA and 0.05% Tween for 30 min, and stained with MAP2 rabbit mAb (1:100, D5G1, Cell Signaling) for 1 hr. The second antibody step was performed by labeling with Alexa Fluor® 488-conjugated IgG antibody to rabbit for 1 h (1:1000; Molecular Probes USA).
Next, the effect of the small molecules on neurogenesis in a P19 differentiation model was measured. […] Neuronal differentiation is marked by the expression of the neuronal marker MAP-2, while the addition of BMP-2 reduces the levels of this marker. Addition of the murine anti-BMP-2/4 monoclonal antibody reverses the effect of BMP-2 and induces acquisition of neuronal phenotype. Thus, the effect of SM1, SM7 and SM9 on the expression of the neuronal marker MAP-2 in P19 cells was examined in the presence of RA and BMP-2. Three concentrations of the molecules were tested: 0.625 μM, 1.25 μM and 2.5 μM.

Another test addresses T1, BMP-2 (Homo sapiens, UniProt P12643).
T1 construct: purchased R&D Systems
T1 sequence (P12643 283-396): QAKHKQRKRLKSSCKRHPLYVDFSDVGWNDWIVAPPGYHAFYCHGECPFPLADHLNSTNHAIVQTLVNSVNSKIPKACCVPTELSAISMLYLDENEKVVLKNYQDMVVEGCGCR
Put plainly: ATDC5 cell based HTS bioassay: ALP production stimulated by BMP-2 and heparin. The conditions noted are these: inhibition of BMP-2-stimulated ALP in ATDC5 cells, 48 hours, tested at 0.62-10 μM. Also on record: species or system mouse. How it is done: Poly-L-lysine (Sigma-Aldrich) was added to 384-well plates and was removed after 30 min of incubation at RT. An assay medium containing DMEM/F12, 2% FBS, 100 units/ml penicillin, […] streptomycin (Biological industries) was added to each well. […] ATDC5 cells (Sigma-Aldrich) were harvested, re-suspended in assay medium and added to a final concentration of 2000 cells/well. Finally, heparin (Sigma-Aldrich) was added to a final concentration of 2 μg/ml. The cells were incubated for 48 hours at 37° C. with 5% CO2 in a humidified chamber in the presence or absence of potential small molecule inhibitors of BPM-2. After incubation, ALP levels and cell viability were determined using a completely automated protocol. Cells were washed with PBS, lysed using a lysis buffer containing 0.2% Triton X-100 in PBS supplemented with a protease inhibitor cocktail (Sigma-Aldrich) and incubated for 25 min at RT. ALP level was then determined by addition of CDP-Star® chemiluminescent substrate (Sigma-Aldrich) and measurement of luminescence after incubation for 25 min at RT in the dark. Cell viability was finally determined by addition of CellTiter-Glo® reagent (Biological Industries) and luminescence measurement after 10 min of incubation.
An ATDC5 cell based assay for assessing structure-function relationship of BMP-2 and BMP receptor IA was originally described in Keller et al (Nature Structural & Molecular Biology 2004 11, 481-488). In order to screen a large volume of potential therapeutic agents the ATDC5 cell based bioassay for detecting BMP inhibition was adapted for use in high throughput screening. The bioassay is based on the stimulation of alkaline phosphatase (ALP) production in mouse ATDC5 cells by administration of BMP-2 and heparin, and measurement of ALP levels in the presence of the potential inhibitors. […] This was achieved by using CellTiter-Glo® Luminescent Cell Viability Assay for assessing the cells' viability after the luminescent signal by CDP-Star® has faded. The simultaneous assessment of both ALP production and cells' viability was necessary since potentially toxic tested small molecules may lead to reduced ALP levels by cellular cytotoxicity rather than by interference with BMP-2 signaling. […] Particulars of the bioassay are detailed in the Experimental procedures section above.
A library of small molecules (SM) was screened using the High Throughput Screening bioassay described above. About 7600 SMs were screened, from the Maybridge library, which consists of organic “drug-like” compounds, using the pre-plated HitFinder™ Collection. […] The SM were tested at various concentrations, i.e. at 0.62 μM, 1.25 μM, 2.5 μM, 5 μM and 10 μM.

On to `CC1=C(/C=C/C(C)=C/C=C/C(C)=C/C(=O)O)C(C)(C)CCC1` [RA, all-trans-retinoic acid, reference compound], for which the “MAP-2+ cells” value with P19 cells came out at 73.8±6.5%.

Turning to `c1ccc(C2=NNC(c3ccccc3)=NN2)cc1` [SM2, 1,4-Dihydro-3,6-diphenyl-1,2,4,5-tetrazine], on BMP-2, the IC50 came to 8.5 µM.

Take `CCOC(=O)c1c(NC(=O)c2ccc([N+](=O)[O-])o2)nc(SC)n1Cc1cccs1` [SM3]: half-maximal inhibition against BMP-2 (IC50) was put at 2.6 µM.

Consider `O=C1c2cccc3cc([N+](=O)[O-])cc(c23)C(=O)N1c1ccc(S(=O)(=O)Nc2ccc(C(F)(F)F)cc2)cc1` [SM4, 4-(5-nitro-1,3-dioxobenzo(de)isoquinolin-2-yl)-N-[4-(trifluoromethyl)phenyl]benzenesulfonamide], for which the IC50 against BMP-2 came out at 10 µM.

The compound `CC(=O)NC(=O)CCSc1ccccc1C(=O)NC(C)=O` [SM5, N1-acetyl-2-([3-(acetylamino)-3-oxopropyl]thio)benzamide] came in with an IC50 against BMP-2 of 3.8 µM.

`C/C(=N\NC(=S)NC(C)(C)C)c1ccc(Oc2c(Cl)cncc2Cl)cc1` [SM8, 1-tert-butyl-3-[E-1-(4-(3,5-dichloropyridin-4-yl)oxyphenyl]ethylideneamino)thiourea] displayed an IC50 at BMP-2 of 2.8 µM.
